From US10028961B2, “Therapeutically active compounds and their methods of use” (AGIOS PHARMACEUTICALS, INC., priority 2013, dated 2018)
Where two headings read alike, the source gives them in different places.

Legend:
[1] = target: IDH1 wt/IDH1 R132C heterodimer (Homo sapiens (Human), UniProt O75874, R132C); test: In vitro assay for IDH1m R132C inhibitors, IDH1 wt/IDH1 R132C heterodimer, NADPH depletion (diaphorase/resazurin); type: biochemical; details: NADPH/NADP
Procedure: The following describes the experimental procedures that can be used to obtain data on columns 2 and 4 of Table 4 and column 2 of Table 5.
In the primary reaction, the reduction of α-KG acid to 2-HG is accompanied by a concomitant oxidation of NADPH to NADP. The amount of NADPH remaining at the end of the reaction time is measured in a secondary diaphorase/resazurin reaction in which the NADPH is consumed in a 1:1 molar ratio with the conversion of resazurin to the highly fluorescent resorufin.
The mixture of compound, enzyme, and cofactor is pre-incubated at room temperature for 1 hr prior to the addition of alpha-ketoglutarate. To perform the secondary reaction, 10 uL of 1× buffer containing 36 μg/ml diaphorase and […] resazurin is added to the primary reaction and incubated for a further 5 minutes at 25° C. Florescence is read on a Spectramax platereader at Ex 544 Em 590. Compounds or compound dilutions are prepared in 100% DMSO concentration and diluted 1:50 into the final reaction. […] IC50s are determined.
IDH1 or IDH2 wildtype (wt) and mutant heterodimers are expressed and purified by methods known in the art. For example, IDH1wt/R132m heterodimer is expressed and purified as follows. Co-expression of IDH1wt-his and IDH1R132C-flag is carried out in sf9 insect cells. Cells (25 g) are resuspended in 250 ml of 50 mM Tirs, 500 mM NaCl, pH7.4, at 4° C. with stirring. Cells are disrupted with 4 passes through an M-Y110 Micro fluidizer (Microfluidics) set to 500 psi, and then centrifuged at 22,000 rcf for 20 min at 4° C. The supernatant is harvested and loaded at 15 cm/h on a Histrap FF 5*1 ml column (GE) which is equilibrated with 50 mM Tirs, 500 mM NaCl, pH7.4. Host cell contaminants are removed by washing the column with equilibration buffer followed by equilibration buffer containing 20 mM imidazole and 60 mM imidazole to baseline. IDH1wt-his homodimer and IDH1wt-his/IDH1R132C-flag are eluted by equilibration buffer containing 250 mM imidazole. Fractions eluted by 250 mM imidazole are pooled together and loaded at 15 cm/h onto a column pre-packed with 10 ml ANTI-FLAG® M2 Affinity Gel (Sigma), the column is equilibrated with 50 mM Tris, 500 mM NaCl, pH7.4. After washing with equilibration buffer, IDH1wt-his/IDH1R132C-flag heterodimer is eluted by equilibration buffer containing flag peptide (0.2 mg/ml). Aliquots of IDH1wt-his/IDH1R132C-flag are flash frozen in liquid N2 and stored at −80° C. Same conditions are used for the purification of IDH1wt-his/IDH1R132H-flag.

[2] = system: Neurosphere cells (TS603); test: Cellular assay for IDH1m R132H inhibitors, 2-HG by LC-MS in neurosphere cells (TS603); type: cell-based; details: 2-HG in media at 48 hours
Method in brief: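 TS603 neurosphere cells in NeuroCult medium were dosed with compound (0.25% DMSO final) at 37 C, 5% CO2. After 48 hours, medium 2-HG was measured by LC-MS. At 72 hours, viability was read by CellTiter-Glo luminescence.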

[3] = system: U87MG pLVX-IDH2 R140Q-neo cells; test: U87MG pLVX-IDH2 R140Q-neo cell based assay, 2-HG by LC-MS; details: Homo sapiens, U-87 MG
[4] = target: IDH1 wt/IDH1 R132H heterodimer (Homo sapiens (Human), UniProt O75874, R132H); test: In vitro assay for IDH1m R132H inhibitors, IDH1 wt/IDH1 R132H heterodimer, NADPH depletion (diaphorase/resazurin); type: biochemical
Method in brief: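 Purified IDH1wt-his/IDH1R132H-flag heterodimer (sf9 co-expression) pre-incubated 1 hr at room temperature with compound and NADPH before α-KG addition. Remaining NADPH read by diaphorase/resazurin conversion to fluorescent resorufin, 5 min at 25° C. Compounds diluted 1:50 from DMSO; IC50 determined.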

[5] = IDH1 wt/R132H heterodimer, NADPH/NADP, not saturated, read-out: IDH1 wt/R132H NADPH/NADP IC50 not saturated
[6] = IDH1 wt/IDH1 R132H heterodimer, 300 μM NADP (saturated), read-out: IDH1 wt/R132H NADPH/NADP IC50 saturated

Sequence of IDH1 wt/IDH1 R132H heterodimer (O75874 whole entry R132H): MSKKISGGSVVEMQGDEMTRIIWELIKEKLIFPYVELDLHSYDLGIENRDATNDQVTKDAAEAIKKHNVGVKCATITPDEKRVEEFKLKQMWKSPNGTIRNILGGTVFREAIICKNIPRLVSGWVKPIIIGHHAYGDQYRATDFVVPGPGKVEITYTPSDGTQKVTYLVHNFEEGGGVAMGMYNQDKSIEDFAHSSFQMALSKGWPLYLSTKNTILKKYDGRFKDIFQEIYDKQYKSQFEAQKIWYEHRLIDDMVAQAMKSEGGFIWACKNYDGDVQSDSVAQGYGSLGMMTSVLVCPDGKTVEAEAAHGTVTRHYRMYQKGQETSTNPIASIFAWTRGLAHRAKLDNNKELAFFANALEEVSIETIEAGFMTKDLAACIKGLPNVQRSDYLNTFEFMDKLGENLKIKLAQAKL
Sequence of IDH1 wt/IDH1 R132H heterodimer (O75874 whole entry, stated change not applied): as the sequence (O75874 whole entry R132H) above, with H132R counted along it
Sequence of IDH1 wt/IDH1 R132C heterodimer (O75874 whole entry R132C): as the sequence (O75874 whole entry R132H) above, with H132C counted along it
Sequence of IDH1 wt/IDH1 R132C heterodimer (O75874 whole entry, stated change not applied): as the sequence (O75874 whole entry R132H) above, with H132R counted along it

| SMILES | IC50 [1] | IC50 [2] | IC50 [3] | IC50 [4, 5] | IC50 [4, 6] |
| --- | --- | --- | --- | --- | --- |
| CC(F)(F)c1cccc(-c2nc(NC3CCC(F)(F)C3)nc(NC3CCC(F)(F)C3)n2)n1 (stereo not shown) [Compound 105] | < 50 nM | < 50 nM | < 50 nM | < 50 nM | – |
| Fc1cc(F)cc(Nc2nc(NC3CC(F)(F)C3)nc(-n3ccc(C(F)(F)F)n3)n2)c1 [Compound 106] | – | < 50 nM | < 50 nM | < 50 nM | – |
| CCC(Nc1nc(NC(CC)C2CC2)nc(-c2cccc(Cl)n2)n1)C1CC1 (stereo not shown) [Compound 110] | < 50 nM | < 50 nM | < 50 nM | < 50 nM | – |
| FC1(F)CCC(Nc2nc(NC3CCC(F)(F)C3)nc(-c3cccc(Cl)n3)n2)C1 (stereo not shown) [Compound 113] | < 50 nM | < 50 nM | < 50 nM | < 50 nM | – |
| FC1(F)CCC(Nc2nc(Nc3ccnc(C(F)(F)F)c3)nc(-c3cccc(Cl)n3)n2)C1 (stereo not shown) [Compound 115] | < 50 nM | < 50 nM | < 50 nM | < 50 nM | – |
| CC(C)(C)Nc1nc(Nc2cccc(C#N)c2)nc(-c2cccc(C(F)(F)F)n2)n1 [Compound 117] | < 50 nM | – | < 50 nM | < 50 nM | – |
| C[C@@H](Nc1nc(N[C@H](C)C2CC2)nc(-n2ccc(C(F)(F)F)n2)n1)C1CC1 [Compound 121] | < 50 nM | < 50 nM | < 50 nM | < 50 nM | – |
| Fc1cc(F)cc(Nc2nc(NC3CCC(F)(F)C3)nc(-c3cccc(C(F)(F)F)n3)n2)c1 (stereo not shown) [Compound 123] | < 50 nM | < 50 nM | < 50 nM | < 50 nM | – |
| N#Cc1cc(F)cc(Nc2nc(NC3CCC(F)(F)C3)nc(-c3cccc(C(F)(F)F)n3)n2)c1 (stereo not shown) [Compound 124] | < 50 nM | < 50 nM | < 50 nM | < 50 nM | – |
| FC1(F)CC(Nc2nc(NC3CC(F)(F)C3)nc(-n3ccc(C(F)(F)F)n3)n2)C1 [Compound 126] | < 50 nM | < 50 nM | < 50 nM | < 50 nM | – |
| N#CC1(c2cc(Nc3nc(NC4CCC(F)(F)C4)nc(-c4cccc(Cl)n4)n3)ccn2)CC1 (stereo not shown) [Compound 127] | < 50 nM | < 50 nM | < 50 nM | < 50 nM | – |
| FC1(F)CC(Nc2nc(NC3CC(F)(F)C3)nc(-c3nc(C(F)(F)F)cs3)n2)C1 [Compound 128] | < 50 nM | < 50 nM | < 50 nM | < 50 nM | – |
| Clc1cccc(-c2nc(NC(C3CC3)C3CC3)nc(NC(C3CC3)C3CC3)n2)n1 [Compound 131] | < 50 nM | < 50 nM | < 50 nM | < 50 nM | – |
| CC(Nc1nc(Nc2ccnc(C3(C#N)CC3)c2)nc(-c2cccc(Cl)n2)n1)C(F)(F)F (stereo not shown) [Compound 134] | < 50 nM | < 50 nM | < 50 nM | < 50 nM | – |
| FC(F)c1cccc(-c2nc(NC3CC(F)(F)C3)nc(NC3CC(F)(F)C3)n2)n1 [Compound 145] | < 50 nM | < 50 nM | < 50 nM | < 50 nM | – |
| FC1(F)CCC(Nc2nc(NC3CCC(F)(F)C3)nc(-n3ccc(C(F)(F)F)n3)n2)C1 (stereo not shown) [Compound 146] | < 50 nM | < 50 nM | < 50 nM | < 50 nM | – |
| FC1(F)CCC(Nc2nc(NC3CCC(F)(F)CC3)nc(-c3cncc(Cl)n3)n2)CC1 [Compound 147] | < 50 nM | < 50 nM | < 50 nM | < 50 nM | – |
| FC1(F)CC(Nc2nc(NC3CC(F)(F)C3)nc(-c3cccc(C(F)(F)F)n3)n2)C1 [Compound 149] | < 50 nM | < 50 nM | < 50 nM | < 50 nM | – |
| N#CC1(c2cc(Nc3nc(NC4CCC(F)(F)C4)nc(-c4cccc(C(F)(F)F)n4)n3)ccn2)CC1 (stereo not shown) [Compound 151] | < 50 nM | < 50 nM | < 50 nM | < 50 nM | – |

| SMILES | IC50 [1] | IC50 [2] | IC50 [3] | IC50 [4, 5] | IC50 [4, 6] |
| --- | --- | --- | --- | --- | --- |
| FC1(F)CCC(Nc2nc(NC3Cc4ccccc4C3)nc(-c3cccc(C(F)(F)F)n3)n2)C1 (stereo not shown) [Compound 152] | < 50 nM | < 50 nM | < 50 nM | < 50 nM | – |
| FC1(F)CCC(Nc2nc(NC3CCC(F)(F)CC3)nc(-c3cncc(C(F)(F)F)n3)n2)CC1 [Compound 160] | – | < 50 nM | < 50 nM | < 50 nM | – |
| FC1(F)CC(Nc2nc(NC3CC(F)(F)C3)nc(-c3cncc(C(F)(F)F)n3)n2)C1 [Compound 161] | – | < 50 nM | < 50 nM | < 50 nM | – |
| CC(C)(C)Nc1nc(Nc2ccnc(C#N)c2)nc(-c2cccc(C(F)(F)F)n2)n1 [Compound 162] | < 50 nM | < 50 nM | < 50 nM | < 50 nM | – |
| N#Cc1cc(F)cc(Nc2nc(NC3CCC(F)(F)CC3)nc(-c3cccc(C(F)(F)F)n3)n2)c1 [Compound 164] | < 50 nM | < 50 nM | < 50 nM | < 50 nM | – |
| C[C@@H](Nc1nc(Nc2ccnc(C3(C#N)CC3)c2)nc(-c2cccc(Cl)n2)n1)C1CC1 [Compound 167] | < 50 nM | < 50 nM | < 50 nM | < 50 nM | – |
| N#CC1(c2cc(Nc3nc(NC4CC(F)(F)C4)nc(-c4cccc(C(F)(F)F)n4)n3)ccn2)CC1 [Compound 168] | – | < 50 nM | < 50 nM | < 50 nM | – |
| FC1(F)CC(Nc2nc(NC3CC(F)(F)C3)nc(-c3csc(C(F)(F)F)n3)n2)C1 [Compound 170] | < 50 nM | < 50 nM | < 50 nM | < 50 nM | – |
| FC1(F)CCC(Nc2nc(NC3CCC(F)(F)CC3)nc(-n3ccc(C(F)(F)F)n3)n2)CC1 [Compound 176] | < 50 nM | < 50 nM | < 50 nM | < 50 nM | – |
| FC1(F)CCC(Nc2nc(NC3CCOCC3)nc(-c3cccc(C(F)(F)F)n3)n2)CC1 [Compound 255] | 100 to 1000 nM | – | – | 100 to 1000 nM | – |
| O=C(c1ccccc1)N1CCC(Nc2nc(NC3CCC(F)(F)C3)nc(-c3cccc(C(F)(F)F)n3)n2)C1 (stereo not shown) [Compound 263] | 100 to 1000 nM | – | – | 100 to 1000 nM | – |
| CS(=O)(=O)N1CCC(Nc2nc(NC3CCC(F)(F)CC3)nc(-c3cccc(C(F)(F)F)n3)n2)CC1 [Compound 266] | 100 to 1000 nM | < 50 nM | – | 100 to 1000 nM | – |
| Fc1ccc([C@H]2C[C@@H](Nc3nc(N[C@H]4C[C@@H](c5ccc(F)cc5)C4)nc(-c4cccc(C(F)(F)F)n4)n3)C2)cc1 [Compound 272] | 100 to 1000 nM | – | 100 to 1000 nM | 100 to 1000 nM | – |
| CC(=O)N1CCC(Nc2nc(NC3CCC(F)(F)CC3)nc(-c3cccc(C(F)(F)F)n3)n2)CC1 [Compound 273] | 100 to 1000 nM | – | – | 100 to 1000 nM | – |
| FC1(F)CCC(Nc2nc(NC3CCN(Cc4ccccc4)C3)nc(-c3cccc(C(F)(F)F)n3)n2)C1 (stereo not shown) [Compound 280] | ≥ 1000 nM | – | – | 100 to 1000 nM | – |
| FC1(F)CCC(Nc2nc(Nc3ccnc(C(F)(F)F)c3)nc(-c3cncc(C(F)(F)F)n3)n2)CC1 [Compound 389] | – | < 50 nM | < 50 nM | – | < 50 nM |
| FC1(F)CC[C@H](Nc2nc(Nc3ccnc(C(F)(F)F)c3)nc(-c3cncc(C(F)(F)F)n3)n2)C1 [Compound 391] | – | < 50 nM | < 50 nM | – | < 50 nM |
| N#CC1(c2cc(Nc3nc(NC4CC(F)(F)C4)nc(-c4cncc(C(F)(F)F)n4)n3)ccn2)CC1 [Compound 401] | – | < 50 nM | < 50 nM | – | < 50 nM |
